Data as given in US20260191200A1, “COMPOUNDS AND COMPOSITIONS HAVING KNOCK-DOWN OR BLOOD FEED INHIBITION ACTIVITY AGAINST INSECT PESTS” (priority 2015, published 2026).

Key:
Type in all cases: in vivo
[1] = test system: Anopheles coluzzii VK7 lab strain; experiment: WHOPES tunnel test with live guinea pig baits, Burkina Faso (B17); conditions: Table B17; for Blood fed: number of mosquitoes
Method: (§1) The following tests are based on the “WHOPES tunnel tests” (described at http://apps.who.int/iris/bitstream/10665/80270/1/9789241505277_eng.pdf)
(§2) For examples B16-B20, the WHOPES tunnel test procedure was followed with live guniea pig baits wherein B16-B18 were conduced in Burkina Faso with Anopheles gambiae Kisumu, Anopheles coluzzii VK7 lab strain and Anopheles gambiae s.l. VK field strain, respectively; and B19-B20 were conducted in Cote d′Ivoire with Anopheles gambiae Kisumu and Anopheles gambiae Tiassale field strain, respectively.
(§3) The commercial standard Olyset nets used in certain examples are 2% w/w permethrin (approx. 1000 mg/m2, although not all of that is available on the surface at any one time, as a good proportion is in the polymer).
(§4) All tests were done under standardised laboratory controlled conditions (27° C.+2° C. under subdued light). The tunnel apparatus was a 60×30×30 cm glass case open at each end and the floor was lined with wet blue roll in order to maintain humidity. A 30×30×30 cm cage, covered in untreated netting, was placed at the release end. The test nets were cut to 25×25 cm squares and fitted into cardboard frames that allow a 20×20 cm area to be exposed. Nine holes, 1 cm in diameter, were made in the netting in the pattern specified in the WHOPES test. The frames were then fitted into the tunnel one third of the way down its length. A Hemotek device, filled with blood and kept constant at 37° C. to mimic a human host, was placed in the smaller area of the glass tunnel behind the test netting, and the end of the tunnel closed with a netting screen. A human sat at the Hemotek end of the tunnels for the duration of the test. At the start of the test, 100 female mosquitoes (non-blood fed, aged 5-8 days) were introduced into the cage. Mosquitoes are free to fly in the tunnel but have to make contact with the piece of netting and locate the holes in it before passing through to reach the bait.
(§5) After 7 hours the mosquitoes were counted in each section of the tunnel. The number of mosquitoes knocked down and blood fed were recorded. Blood-feeding inhibition was assessed by comparing the proportion of blood-fed females (alive or dead) in treated and control tests. Four tunnels were run simultaneously each day, with one control containing untreated netting included with all runs. Three replicates were carried out per treatment. In case of multiple tests, the mean value is reported.

Anopheles gambiae Kisumu [2] = experiment: WHOPES tunnel test with live guinea pig baits, Burkina Faso (B16); conditions: Table B16; for Blood fed: number of mosquitoes
Method: as §1, §2, §3, §4, §5

[3] = test system: Anopheles gambiae, resistant strain AKRON; experiment: WHOPES tunnel test with Hemotek membrane feeding device (B15); conditions: Table B15
Method: as §1
(§6) For examples B11-B15 the WHOPES tunnel test procedure was followed, except that live guniea pig baits were replaced with a Hemotek membrane feeding device, filled with blood and kept constant at 37° C. to mimic a human host.
For example B15, the tunnel test was conducted with Anopheles gambiae, resistant strain AKRON.
as §3
All tests were done under standardised laboratory controlled conditions (27° C.+2° C. under subdued light). The tunnel apparatus was a 60×30×30 cm glass case open at each end and the floor was lined with wet blue roll in order to maintain humidity. A 30×30×30 cm cage, covered in untreated netting, was placed at the release end. The test nets were cut to 25×25 cm squares and fitted into cardboard frames that allow a 20×20 cm area to be exposed. […]
After 7 hours the mosquitoes were counted in each section of the tunnel. The number of mosquitoes knocked down and blood fed were recorded. Blood-feeding inhibition was assessed by comparing the proportion of blood-fed females (alive or dead) in treated and control tests. […]

[4] = test system: Anopheles gambiae s.l. VK field strain; experiment: WHOPES tunnel test with live guinea pig baits, Burkina Faso (B18); conditions: Table B18; for Blood fed: number of mosquitoes
Method: as §1, §2, §3, §4, §5

Anopheles gambiae Kisumu [5] = experiment: WHOPES tunnel test with live guinea pig baits, Cote d′Ivoire (B19); conditions: Table B19; for Blood fed: number of mosquitoes
Method: as §1, §2, §3, §4, §5

Anopheles stephensi [6] = experiment: WHOPES tunnel test with Hemotek membrane feeding device (B11-B14)
Method: as §1, §6
For examples B11-B14, the tunnel test was conducted with Anopheles stephensi;
as §4, §5

[7] = test system: Anopheles gambiae Tiassale field strain; experiment: WHOPES tunnel test with live guinea pig baits, Cote d′Ivoire (B20); conditions: Table B20; for Blood fed: number of mosquitoes
Method: as §1, §2, §3, §4, §5

Anopheles stephensi [8] = experiment: six well tissue culture plate deposit test, knockdown and mortality (Examples B1-B10); conditions: for 24 hr mort / 48 hr mort / KD: Table B4, alone or +Comp. (1.3); for KD: knockdown after 1 hour; for knockdown after 1 hour: Alone or Plus Compound (1.3)
Method: The individual wells of six (6) well tissue culture plates were treated with 250 μl of an ethanol solution containing a test compound at a defined concentration. Once the deposits were dry, ten non-blood fed adult female Anopheles stephensi (between two to five day old) were added to each well, and sustained with a 10% sucrose solution in a cotton wool plug. Assessment of the knockdown after 1 hour (Tables B1-B10), and mortality after 24 and 48 hours (Tables B1-B4) was carried out.
In case of multiple tests, the mean value is reported.

[9] = test system: non-blood fed adult female mosquitoes; experiment: Bottle assay based on the CDC bottle assay (B21, B22); conditions: Table B21; rate not given
Method: Based on the “CDC bottle assay” (described at http://www.cdc.gov/malaria/resources/pdf/fsp/ir_manual/ir_cdc_bioassay_en.pdf) 1 ml of ethanol containing a test compound at a defined concentration was added to a 250 ml glass bottle and the bottles were placed on a rolling table to coat the inner surfaces as the solvent evaporated. Once dry, twenty five non-blood fed adult female mosquitoes of the appropriate species and strains (each three day old) were aspirated from the stock culture and gently blown into the exposure bottles. The lid of the bottle was replaced and the bottle placed upright out of direct sun light under standard culture conditions, nominally 28° C. and 60-80% relative humidity.
A stopwatch was started, and the assessment of the knock-down were made after 15 mins and 60 minutes. A mosquito was said to be knocked down if it was unable to stand, following the CDC definition. The bottles were replaced in an upright position when not being assessed.
After one hour the mosquitoes were carefully removed from the bottle with an aspirator and placed in a recovery cup. The mosquitoes were supplied with a 10% sucrose solution on a cotton wool bung, and stored under culture conditions. Assessments of the mortality were made after 24 hours and 48 hours (B21).
Each treatment was replicated a minimum of four times, with the mean knockdown or mortality recorded. In each study, a set of bottles was infested with a known insecticide susceptible strain of mosquitoes from the same genera as the resistant strains.

Aedes aegypti = experiment: twelve well tissue culture plate deposit test, knockdown (B23); conditions: 1 h, read-out: Aedes aegypti 1 hour % KD
Method: (§7) The individual wells of a twelve (12) well tissue culture plates were treated with 100 μl of an ethanol solution containing a test compound at a defined concentration. Once the deposits were dry, five non-blood fed adult female Aedes aegypti or Anopheles stephensi (between two to five day old) were added to each well, and sustained with a 10% sucrose solution in a cotton wool plug. Assessment of the knockdown after 1 hour was carried out. Where multiple replicates of a treatment have been undertaken, the mean of those replicates is reported.

Anopheles stephensi [10] = experiment: as above; conditions: 1 h, read-out: Anopheles stephensi 1 hour % KD
Method: as §7

[11] = Table B12, Deltamethrin 5 mg/m2

NC(=O)c1cnccc1C(F)(F)F [Compound 1.3]
% Blood fed ([1]; 50 mg/m2): 3.3% | % Blood fed ([1]; 200 mg/m2): 1.5% | Blood fed ([1]; 50 mg/m2): 10 | Blood fed ([1]; 200 mg/m2): 6 | % Blood fed (Anopheles gambiae Kisumu [2]; 50 mg/m2): 1.5% | % Blood fed (Anopheles gambiae Kisumu [2]; 200 mg/m2): 0.3% | Blood fed (Anopheles gambiae Kisumu [2]; 50 mg/m2): 5 | Blood fed (Anopheles gambiae Kisumu [2]; 200 mg/m2): 1 | % Blood fed ([3]; Compound (1.3) 25 mg/m2): 0.3% | % Blood fed ([4]; 50 mg/m2): 1.3% | % Blood fed ([4]; 200 mg/m2): 1.8% | Blood fed ([4]; 50 mg/m2): 4 | Blood fed ([4]; 200 mg/m2): 6 | % Blood fed (Anopheles gambiae Kisumu [5]; 50 mg/m2): 25.0% | % Blood fed (Anopheles gambiae Kisumu [5]; 200 mg/m2): 23.1% | Blood fed (Anopheles gambiae Kisumu [5]; 50 mg/m2): 70 | Blood fed (Anopheles gambiae Kisumu [5]; 200 mg/m2): 74 | % Blood fed (Anopheles stephensi [6]; Table B11, treated net, Rate 10 mg/m2): 3% | % Blood fed ([7]; 50 mg/m2): 24.5% | % Blood fed ([7]; 200 mg/m2): 3.3% | Blood fed ([7]; 50 mg/m2): 66 | Blood fed ([7]; 200 mg/m2): 10

COC(=O)N(C(=O)N1CO[C@@]2(C(=O)OC)Cc3cc(Cl)ccc3C2=N1)c1ccc(OC(F)(F)F)cc1 [Indoxacarb]
% Blood fed ([3]; Indoxacarb 200 mg/m2): 4.4% | % 24 hour mortality (Anopheles stephensi [6]; Table B14, Indoxacarb 20 mg/m2): 7.6% | 24 hr mort (Anopheles stephensi [8]; Rate 12.5 ppm): 0.0 | 48 hr mort (Anopheles stephensi [8]; Rate 12.5 ppm): 0.0 | 24 hr mort (Anopheles stephensi [8]; Rate 25 ppm): 0.0 | 48 hr mort (Anopheles stephensi [8]; Rate 25 ppm): 0.0 | 24 hr mort (Anopheles stephensi [8]; Rate 50 ppm): 0.0 | 48 hr mort (Anopheles stephensi [8]; Rate 50 ppm): 0.0 | 24 hr mort (Anopheles stephensi [8]; Rate 100 ppm): 0.0 | 48 hr mort (Anopheles stephensi [8]; Rate 100 ppm): 0.0 | KD (Anopheles stephensi [8]; Rate 12.5 ppm): 0.0 | KD (Anopheles stephensi [8]; Rate 25 ppm): 0.0 | KD (Anopheles stephensi [8]; Rate 50 ppm): 0.0 | KD (Anopheles stephensi [8]; Rate 100 ppm): 0.0 | knockdown after 1 hour (Anopheles stephensi [8]; Table B7, Rate 25 ppm): 0 | knockdown after 1 hour (Anopheles stephensi [8]; Table B7, Rate 50 ppm): 0 | knockdown after 1 hour (Anopheles stephensi [8]; Table B7, Rate 100 ppm): 0 | knockdown after 1 hour (Anopheles stephensi [8]; Table B7, Rate 200 ppm): 0

N#CCNC(=O)c1cnccc1C(F)(F)F [Flonicamid]
24 hour % mort [9]: 0% | 48 hour % mort [9]: 0% | % 1 hour KD [9]: 0%

FC(F)(F)c1ccncc1-c1noc(-c2cccc(Cl)c2)n1 [Compound 1.1]
pest or weed control at 0.2 ppm (Aedes aegypti; Rate 0.2 PPM): 100% | pest or weed control at 2 ppm (Aedes aegypti; Rate 2 PPM): 100% | pest or weed control at 20 ppm (Aedes aegypti; Rate 20 PPM): 100% | pest or weed control at 200 ppm (Aedes aegypti; Rate 200 PPM): 100% | pest or weed control at 0.2 ppm (Anopheles stephensi [10]; Rate 0.2 PPM): 40% | pest or weed control at 2 ppm (Anopheles stephensi [10]; Rate 2 PPM): 100% | pest or weed control at 20 ppm (Anopheles stephensi [10]; Rate 20 PPM): 100% | pest or weed control at 200 ppm (Anopheles stephensi [10]; Rate 200 PPM): 100%

CCN(CC)c1nc(C)cc(OP(=S)(OC)OC)n1 [pirimiphos-methyl]
knockdown after 1 hour (Anopheles stephensi [8]; Table B10, Rate 0.0625 ppm): 0.0 | knockdown after 1 hour (Anopheles stephensi [8]; Table B10, Rate 0.125 ppm): 0.0

CC1(C)[C@H](C(=O)O[C@H](C#N)c2cccc(Oc3ccccc3)c2)[C@@H]1C=C(Br)Br [Deltamethrin]
% 1 hour KD (Anopheles stephensi [6]; [11]): 0% | % Blood fed (Anopheles stephensi [6]; [11]): 0%
